From ChEMBL document CHEMBL1201862, “PubChem BioAssay data set” (2004)
Calls of active or inactive are those of the source. Rule as the data show it: actives have a measured IC50 and inactives only a lower limit.

Molecular target: Envelope glycoprotein gp160 (Human immunodeficiency virus 1, UniProt Q6QLK5)
Experiment: cell-free HIV fusion peptide-binding blockers – biochemical, uHTS, fluorescence dequenching, […] (AID 1986)

Chain of Envelope glycoprotein gp160 (Q6QLK5 whole entry, the tested form may be a part): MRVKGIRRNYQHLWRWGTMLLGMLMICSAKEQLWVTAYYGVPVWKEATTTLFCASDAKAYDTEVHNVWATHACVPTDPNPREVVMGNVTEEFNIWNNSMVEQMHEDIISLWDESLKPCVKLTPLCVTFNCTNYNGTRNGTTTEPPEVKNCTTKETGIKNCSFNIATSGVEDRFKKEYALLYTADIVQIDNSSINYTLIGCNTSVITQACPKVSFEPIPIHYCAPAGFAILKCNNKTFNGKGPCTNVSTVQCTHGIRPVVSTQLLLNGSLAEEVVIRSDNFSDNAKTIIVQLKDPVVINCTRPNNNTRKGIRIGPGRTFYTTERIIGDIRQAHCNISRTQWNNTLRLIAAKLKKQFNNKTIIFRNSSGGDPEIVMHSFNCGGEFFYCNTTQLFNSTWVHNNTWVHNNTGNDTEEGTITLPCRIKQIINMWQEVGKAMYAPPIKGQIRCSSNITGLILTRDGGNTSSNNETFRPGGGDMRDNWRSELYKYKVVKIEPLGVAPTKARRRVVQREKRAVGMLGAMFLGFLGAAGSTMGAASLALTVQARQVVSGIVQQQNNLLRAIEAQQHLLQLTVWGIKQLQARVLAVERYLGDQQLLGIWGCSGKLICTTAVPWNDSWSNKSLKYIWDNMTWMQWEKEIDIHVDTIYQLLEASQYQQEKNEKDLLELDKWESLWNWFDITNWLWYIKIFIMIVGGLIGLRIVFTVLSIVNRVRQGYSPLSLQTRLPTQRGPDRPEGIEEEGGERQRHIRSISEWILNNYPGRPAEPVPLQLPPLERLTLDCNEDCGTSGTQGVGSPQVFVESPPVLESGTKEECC

## O=C1Nc2ccc(Br)cc2/C1=C1/SC(=S)N(NS(=O)(=O)c2ccccc2)C1=O
  IC50: 23.9 µM (active)
